Laboratory results: PubChem BioAssay AID1259407 (Chemical Carcinogenesis Research Information System (CCRIS), 2018)
Calls of active or inactive are those of the source. The rule behind the calls is not given here.

Tested on: CCRIS mutagenicity, Ames/micronucleus/aberration tests
Assay: CCRIS mutagenicity studies
[1] = Test System: AMES SALMONELLA TYPHIMURIUM, Strain/Indicator: TA98, Metabolic Activation: NONE, Method: STANDARD PLATE
[2] = Test System: AMES SALMONELLA TYPHIMURIUM, Strain/Indicator: TA100, Metabolic Activation: NONE, Method: STANDARD PLATE
[3] = Test System: AMES SALMONELLA TYPHIMURIUM, Strain/Indicator: TA1535, Metabolic Activation: NONE, Method: STANDARD PLATE
[4] = Test System: AMES SALMONELLA TYPHIMURIUM, Strain/Indicator: TA1537, Metabolic Activation: NONE, Method: STANDARD PLATE

Measured: mutagenic call

CCN(CC)c1ccc(C(=C2C=CC(=[N+](CC)CC)C=C2)c2ccc(N(CC)CC)cc2)cc1
inactive: Test System: AMES SALMONELLA TYPHIMURIUM, Strain/Indicator: TA98, Metabolic Activation: HAMSTER, LIVER, S-9, AROCLOR 1254 (10%), Method: STANDARD PLATE inactive; negative | [1] inactive; negative | Test System: AMES SALMONELLA TYPHIMURIUM, Strain/Indicator: TA98, Metabolic Activation: RAT, LIVER, S-9, AROCLOR 1254 (10%), Method: STANDARD PLATE inactive; negative | Test System: AMES SALMONELLA TYPHIMURIUM, Strain/Indicator: TA100, Metabolic Activation: HAMSTER, LIVER, S-9, AROCLOR 1254 (10%), Method: STANDARD PLATE inactive; negative | [2] inactive; negative | Test System: AMES SALMONELLA TYPHIMURIUM, Strain/Indicator: TA100, Metabolic Activation: RAT, LIVER, S-9, AROCLOR 1254 (10%), Method: STANDARD PLATE inactive; negative | [3] inactive; negative | Test System: AMES SALMONELLA TYPHIMURIUM, Strain/Indicator: TA1535, Metabolic Activation: RAT, LIVER, S-9, AROCLOR 1254 (10%), Method: STANDARD PLATE inactive; negative | Test System: AMES SALMONELLA TYPHIMURIUM, Strain/Indicator: TA1537, Metabolic Activation: HAMSTER, LIVER, S-9, AROCLOR 1254 (10%), Method: STANDARD PLATE inactive; negative | [4] inactive; negative | Test System: AMES SALMONELLA TYPHIMURIUM, Strain/Indicator: TA1537, Metabolic Activation: RAT, LIVER, S-9, AROCLOR 1254 (10%), Method: STANDARD PLATE inactive; negative | Test System: AMES SALMONELLA TYPHIMURIUM, Strain/Indicator: TA1538, Metabolic Activation: HAMSTER, LIVER, S-9, AROCLOR 1254 (10%), Method: STANDARD PLATE inactive; negative | Test System: AMES SALMONELLA TYPHIMURIUM, Strain/Indicator: TA1538, Metabolic Activation: NONE, Method: STANDARD PLATE inactive; negative | Test System: AMES SALMONELLA TYPHIMURIUM, Strain/Indicator: TA1538, Metabolic Activation: RAT, LIVER, S-9, AROCLOR 1254 (10%), Method: STANDARD PLATE inactive; negative | Test System: Mouse lymphoma, Strain/Indicator: L5178Y (tk+/tk-), Metabolic Activation: None, Method: Suspension/plate inactive; negative | Test System: Mouse lymphoma, Strain/Indicator: L5178Y (tk+/tk-), Metabolic Activation: Rat, Liver, S-9, Aroclor 1254, Method: Suspension/plate inactive; inconclusive (previous results negative)

CCCCCCCCCCCCOC[N+](C)(C)Cc1ccccc1
inactive: Test System: BACILLUS SUBTILIS, Strain/Indicator: H17/REC, Metabolic Activation: NONE, Method: STANDARD PLATE inactive; negative | Test System: BACILLUS SUBTILIS, Strain/Indicator: M45, Metabolic Activation: NONE, Method: STANDARD PLATE inactive; negative

N[C@@H]1C[C@H]1c1ccccc1
inactive: [1] inactive; negative | Test System: AMES SALMONELLA TYPHIMURIUM, Strain/Indicator: TA98, Metabolic Activation: RAT, LIVER, S-9, AROCLOR 1254, Method: STANDARD PLATE inactive; negative | [2] inactive; negative | Test System: AMES SALMONELLA TYPHIMURIUM, Strain/Indicator: TA100, Metabolic Activation: RAT, LIVER, S-9, AROCLOR 1254, Method: STANDARD PLATE inactive; negative | [3] inactive; negative | Test System: AMES SALMONELLA TYPHIMURIUM, Strain/Indicator: TA1535, Metabolic Activation: RAT, LIVER, S-9, AROCLOR 1254, Method: STANDARD PLATE inactive; negative | [4] inactive; negative | Test System: AMES SALMONELLA TYPHIMURIUM, Strain/Indicator: TA1537, Metabolic Activation: RAT, LIVER, S-9, AROCLOR 1254, Method: STANDARD PLATE inactive; negative

CC(=O)OCCO
inactive: [1] inactive; negative | Test System: AMES SALMONELLA TYPHIMURIUM, Strain/Indicator: TA98, Metabolic Activation: RAT, LIVER, MICROSOMES, Method: STANDARD PLATE inactive; negative | [2] inactive; negative | Test System: AMES SALMONELLA TYPHIMURIUM, Strain/Indicator: TA100, Metabolic Activation: RAT, LIVER, MICROSOMES, Method: STANDARD PLATE inactive; negative
